Calls of active or inactive are those of the source. No cut-off for these calls is given here.
Assays:
Blood [1] = test: Biodistribution in blood of Kunming mouse at 1 uCi, iv after 60 mins by gamma counting; format: ADME, organism-based; settings: in vivo, 1 h
Muscle tissue [2] = test: Biodistribution in muscle of Kunming mouse at 1 uCi, iv after 2 mins by gamma counting; format: ADME, organism-based; settings: in vivo
Brain [3] = test: Biodistribution in brain of Kunming mouse at 1 uCi, iv after 120 mins by gamma counting; format: ADME, organism-based; settings: in vivo, 2 h
Muscle tissue [4] = test: Biodistribution in muscle of Kunming mouse at 1 uCi, iv after 240 mins by gamma counting; format: ADME, organism-based; settings: in vivo, 4 h
Blood [5] = test: Biodistribution in blood of Kunming mouse at 1 uCi, iv after 240 mins by gamma counting; format: ADME, organism-based; settings: in vivo, 4 h
Blood [6] = test: Biodistribution in blood of Kunming mouse at 1 uCi, iv after 2 mins by gamma counting; format: ADME, organism-based; settings: in vivo
Brain [7] = test: Biodistribution in brain of Kunming mouse at 1 uCi, iv after 30 mins by gamma counting; format: ADME, organism-based; settings: in vivo, 0.5 h
Lung [8] = test: Biodistribution in lung of Kunming mouse at 1 uCi, iv after 240 mins by gamma counting; format: ADME, organism-based; settings: in vivo, 4 h
Lung [9] = test: Biodistribution in lung of Kunming mouse at 1 uCi, iv after 120 mins by gamma counting; format: ADME, organism-based; settings: in vivo, 2 h
Kidney [10] = test: Biodistribution in kidney of Kunming mouse at 1 uCi, iv after 30 mins by gamma counting; format: ADME, organism-based; settings: in vivo, 0.5 h
Lung [11] = test: Biodistribution in lung of Kunming mouse at 1 uCi, iv after 30 mins by gamma counting; format: ADME, organism-based; settings: in vivo, 0.5 h
Muscle tissue [12] = test: Biodistribution in muscle of Kunming mouse at 1 uCi, iv after 30 mins by gamma counting; format: ADME, organism-based; settings: in vivo, 0.5 h
Stomach [13] = test: Biodistribution in stomach of Kunming mouse at 1 uCi, iv after 2 mins by gamma counting measured per organ; format: ADME, organism-based; settings: in vivo
Stomach [14] = test: Biodistribution in stomach of Kunming mouse at 1 uCi, iv after 120 mins by gamma counting measured per organ; format: ADME, organism-based; settings: in vivo, 2 h
Heart [15] = test: Biodistribution in heart of Kunming mouse at 1 uCi, iv after 120 mins by gamma counting; format: ADME, organism-based; settings: in vivo, 2 h
Liver [16] = test: Biodistribution in liver of Kunming mouse at 1 uCi, iv after 2 mins by gamma counting; format: ADME, organism-based; settings: in vivo
Brain [17] = test: Biodistribution in brain of Kunming mouse at 1 uCi, iv after 60 mins by gamma counting; format: ADME, organism-based; settings: in vivo, 1 h
Brain [18] = test: Biodistribution in brain of Kunming mouse at 1 uCi, iv after 240 mins by gamma counting; format: ADME, organism-based; settings: in vivo, 4 h
Stomach [19] = test: Biodistribution in stomach of Kunming mouse at 1 uCi, iv after 240 mins by gamma counting measured per organ; format: ADME, organism-based; settings: in vivo, 4 h
Lung [20] = test: Biodistribution in lung of Kunming mouse at 1 uCi, iv after 2 mins by gamma counting; format: ADME, organism-based; settings: in vivo
Liver [21] = test: Biodistribution in liver of Kunming mouse at 1 uCi, iv after 60 mins by gamma counting; format: ADME, organism-based; settings: in vivo, 1 h
Spleen [22] = test: Biodistribution in spleen of Kunming mouse at 1 uCi, iv after 120 mins by gamma counting; format: ADME, organism-based; settings: in vivo, 2 h
Liver [23] = test: Biodistribution in liver of Kunming mouse at 1 uCi, iv after 120 mins by gamma counting; format: ADME, organism-based; settings: in vivo, 2 h
Muscle tissue [24] = test: Biodistribution in muscle of Kunming mouse at 1 uCi, iv after 60 mins by gamma counting; format: ADME, organism-based; settings: in vivo, 1 h
[25] = Partition coefficient, log D in n-octanol/0.05 M phosphate buffer at pH 7.4; format: physicochemical
Liver [26] = test: Biodistribution in liver of Kunming mouse at 1 uCi, iv after 30 mins by gamma counting; format: ADME, organism-based; settings: in vivo, 0.5 h
Kidney [27] = test: Biodistribution in kidney of Kunming mouse at 1 uCi, iv after 240 mins by gamma counting; format: ADME, organism-based; settings: in vivo, 4 h
Blood [28] = test: Biodistribution in blood of Kunming mouse at 1 uCi, iv after 120 mins by gamma counting; format: ADME, organism-based; settings: in vivo, 2 h
Heart [29] = test: Biodistribution in heart of Kunming mouse at 1 uCi, iv after 60 mins by gamma counting; format: ADME, organism-based; settings: in vivo, 1 h
Heart [30] = test: Biodistribution in heart of Kunming mouse at 1 uCi, iv after 30 mins by gamma counting; format: ADME, organism-based; settings: in vivo, 0.5 h
Spleen [31] = test: Biodistribution in spleen of Kunming mouse at 1 uCi, iv after 2 mins by gamma counting; format: ADME, organism-based; settings: in vivo
Kidney [32] = test: Biodistribution in kidney of Kunming mouse at 1 uCi, iv after 120 mins by gamma counting; format: ADME, organism-based; settings: in vivo, 2 h
Kidney [33] = test: Biodistribution in kidney of Kunming mouse at 1 uCi, iv after 2 mins by gamma counting; format: ADME, organism-based; settings: in vivo
Lung [34] = test: Biodistribution in lung of Kunming mouse at 1 uCi, iv after 60 mins by gamma counting; format: ADME, organism-based; settings: in vivo, 1 h
Stomach [35] = test: Biodistribution in stomach of Kunming mouse at 1 uCi, iv after 60 mins by gamma counting measured per organ; format: ADME, organism-based; settings: in vivo, 1 h
Spleen [36] = test: Biodistribution in spleen of Kunming mouse at 1 uCi, iv after 30 mins by gamma counting; format: ADME, organism-based; settings: in vivo, 0.5 h
Spleen [37] = test: Biodistribution in spleen of Kunming mouse at 1 uCi, iv after 60 mins by gamma counting; format: ADME, organism-based; settings: in vivo, 1 h
Heart [38] = test: Biodistribution in heart of Kunming mouse at 1 uCi, iv after 240 mins by gamma counting; format: ADME, organism-based; settings: in vivo, 4 h
Spleen [39] = test: Biodistribution in spleen of Kunming mouse at 1 uCi, iv after 240 mins by gamma counting; format: ADME, organism-based; settings: in vivo, 4 h
Kidney [40] = test: Biodistribution in kidney of Kunming mouse at 1 uCi, iv after 60 mins by gamma counting; format: ADME, organism-based; settings: in vivo, 1 h
Blood [41] = test: Biodistribution in blood of Kunming mouse at 1 uCi, iv after 30 mins by gamma counting; format: ADME, organism-based; settings: in vivo, 0.5 h
Stomach [42] = test: Biodistribution in stomach of Kunming mouse at 1 uCi, iv after 30 mins by gamma counting measured per organ; format: ADME, organism-based; settings: in vivo, 0.5 h
Brain [43] = test: Biodistribution in brain of Kunming mouse at 1 uCi, iv after 2 mins by gamma counting; format: ADME, organism-based; settings: in vivo
Heart [44] = test: Biodistribution in heart of Kunming mouse at 1 uCi, iv after 2 mins by gamma counting; format: ADME, organism-based; settings: in vivo
Muscle tissue [45] = test: Biodistribution in muscle of Kunming mouse at 1 uCi, iv after 120 mins by gamma counting; format: ADME, organism-based; settings: in vivo, 2 h
Liver [46] = test: Biodistribution in liver of Kunming mouse at 1 uCi, iv after 240 mins by gamma counting; format: ADME, organism-based; settings: in vivo, 4 h
Mus musculus [47] = organism: Mus musculus; test: Binding affinity to beta amyloid plaques in brain sections of TgC57 transgenic mouse transfected with APP and PS1 double mutant after 30 mins by autoradiography; format: tissue-based; settings: tested as the 125I-labelled form
[48] = Displacement of [125I]TZDM from amyloid beta (1 to 42) aggregates after 2 hrs
Mus musculus [49] = organism: Mus musculus; test: Binding affinity to beta amyloid plaques in brain sections of TgC57 transgenic mouse transfected with APP and PS1 double mutant after 30 mins by autoradiography in the presence of thioflavin-T; format: tissue-based; settings: tested as the 125I-labelled form
[50] = Displacement of [125I]TZDM from amyloid beta (1 to 40) aggregates after 2 hrs
Mus musculus [51] = organism: Mus musculus; test: Binding affinity to beta amyloid plaques in brain sections of TgC57 transgenic mouse transfected with APP and PS1 double mutant after 10 mins using thioflavin-S stain; format: tissue-based

SMILES: [125I]c1ccc2nc(-c3ccc(-c4cccs4)s3)sc2c1
- Drug uptake (Blood [1]): 1.96 % ID/g
- Drug uptake (Muscle tissue [2]): 0.65 % ID/g
- Drug uptake (Brain [3]): 0.51 % ID/g
- Drug uptake (Muscle tissue [4]): 0.87 % ID/g
- Drug uptake (Blood [5]): 1.36 % ID/g
- Drug uptake (Blood [6]): 9.02 % ID/g
- Drug uptake (Brain [7]): 1.08 % ID/g
- Drug uptake (Lung [8]): 3.72 % ID/g
- Drug uptake (Lung [9]): 5.76 % ID/g
- Drug uptake (Kidney [10]): 7.22 % ID/g
- Drug uptake (Lung [11]): 8.04 % ID/g
- Drug uptake (Muscle tissue [12]): 1.01 % ID/g
- Drug uptake (Stomach [13]): 0.39 %ID
- Drug uptake (Stomach [14]): 4.39 %ID
- Drug uptake (Heart [15]): 1.5 % ID/g
- Drug uptake (Liver [16]): 53.64 % ID/g
- Drug uptake (Brain [17]): 0.53 % ID/g
- Drug uptake (Brain [18]): 0.5 % ID/g
- Drug uptake (Stomach [19]): 3.24 %ID
- Drug uptake (Lung [20]): 17.51 % ID/g
- Drug uptake (Liver [21]): 29.12 % ID/g
- Drug uptake (Spleen [22]): 3.5 % ID/g
- Drug uptake (Liver [23]): 22.47 % ID/g
- Drug uptake (Muscle tissue [24]): 1.47 % ID/g
- logD [25]: 3.65
- Drug uptake (Liver [26]): 39.81 % ID/g
- Drug uptake (Kidney [27]): 5.76 % ID/g
- Drug uptake (Blood [28]): 1.76 % ID/g
- Drug uptake (Heart [29]): 2.65 % ID/g
- Drug uptake (Heart [30]): 2.49 % ID/g
- Drug uptake (Spleen [31]): 12.75 % ID/g
- Drug uptake (Kidney [32]): 7.33 % ID/g
- Drug uptake (Kidney [33]): 4 % ID/g
- Drug uptake (Lung [34]): 8.01 % ID/g
- Drug uptake (Stomach [35]): 4.05 %ID
- Drug uptake (Spleen [36]): 6.78 % ID/g
- Drug uptake (Spleen [37]): 8.61 % ID/g
- Drug uptake (Heart [38]): 1.31 % ID/g
- Drug uptake (Spleen [39]): 2.07 % ID/g
- Drug uptake (Kidney [40]): 8.52 % ID/g
- Drug uptake (Blood [41]): 2.12 % ID/g
- Drug uptake (Stomach [42]): 2.47 %ID
- Drug uptake (Brain [43]): 3.42 % ID/g
- Drug uptake (Heart [44]): 4.39 % ID/g
- Drug uptake (Muscle tissue [45]): 1.23 % ID/g
- Drug uptake (Liver [46]): 13.82 % ID/g

SMILES: COc1ccc2nc(-c3ccc(-c4ccc(I)s4)s3)sc2c1
- Activity (Mus musculus [47]): Active
- Ki [48]: 0.11 nM
- Activity (Mus musculus [49]): inactive
- Ki [50]: 0.61 nM
- Activity (Mus musculus [51]): Active

SMILES: c1csc(-c2ccc(-c3nc4ccccc4s3)s2)c1
- Ki [48]: 4.64 nM
- Ki [50]: 3.94 nM
- Activity (Mus musculus [51]): Active

From ChEMBL document CHEMBL1156337, “Synthesis and evaluation of novel benzothiazole derivatives based on the bithiophene structure as potential radiotracers for beta-amyloid plaques in Alzheimer's disease” (Bioorg Med Chem, 2010)
